The subject of data set [1] is diclofenac-induced gastric damage. The data set can be described thus: Acute diclofenac-induced gastric toxicity in rats: gastric damage score. To be noted: for Gastric damage score: Group D: PGE2 100 μg/kg oral 30 min before diclofenac 50 mg/kg oral, 3 h, Group B 17.80 ± 5.08. Type of data set: in vivo, rat. As for the experimental part:
(§1) Male Wistar rats were deprived of food but not water for 16 hours prior to oral administration of GL1001 90 mg/kg, incubated for 30 minutes and then given oral diclofenac 50 mg/kg. Each group consisted of 6 rats. As a negative control, one group received vehicle pretreatment, and then received vehicle instead of diclofenac. A positive control group received PGE2 100 μg/kg orally, 30 minutes prior to administration of diclofenac. All treatments were administered by oral gavage.
(§2) Three hours after diclofenac treatment, all animals were sacrificed and stomachs were removed and imaged to determine the severity of gastric damage. Additionally, stomach tissue samples were taken to assess disease activity and pharmacodynamic effects. Gastric damage scores were determined from photographic images (Ma & Wallace (2003) Am. J. Physiol. Gastrointest. Liver Physiol. 279; 341-346). Removed stomachs were opened along the greater curvature, pinned out on a wax block, and photographed along a 25 mm ruler reference with a digital 35 mm camera. The lesion area was then determined using enlarged images and computer software (www.scioncorp.co/pages/scion_image_windows.htm) that allows superimposed drawing of the perimeter of a wound and calculation of the area based on the ruler reference. Stomach samples (excluding forestomach) were used for measurements of PGE2 concentration, MPO activity and ACE2 activity. PRE2 determinations are used in this study as a hiomarker of diclofenac effect since its mechanism of action involves inhibition of cyclooxygenase (COX-2 and COX-1) enzymes which in turn results in inhibition of PGE2 synthesis. Concentration of PGE2 from stomach tissue samples was performed as described by Souza et al. (2003), supra, and quantification was obtained by LC-MS. MTO, an enzyme found in abundance in granulocytes, is used as a biochemical marker of tissue inflammation. When tissues undergo inflammatory processes, granulocytes are recruited to the site of inflammation and infiltrate the affected tissue giving rise to increase MPO activity (Souza et al. (2003), supra). Last, the extent of inhibition of ACE2 activity was determined to establish whether GL1001 was effective in inhibiting its ACE2 target in stomach tissues. The ACE2 activity assay is similar to the method of Vickers et al. (2002) J. Biol. Chem. 277:14838-14843, wherein purified recombinant ACE2 (100 pM) and a quenched fluorescent substrate (100-150 μM APK (7-methoxycoumarin-4-yl)acetyl-Ala-Pro-Lys (2,4-dinitrophenyl)) are used in end-point fluorescence reactions (excitation 320 nm, emission 405 nm). For stomach ACE2 measurements, tissues were homogenized in the presence of a general protease inhibitor (PMSF) and specific ACE inhibitors. […]
(§3) Data are expressed as means with standard errors. […]

The subject of another data set is gastric PGE2. The data set can be described thus: Acute diclofenac-induced gastric toxicity in rats: gastric PGE2 concentration. In kind it is in vivo, rat. How it is done: as §1
as §2, with “PRE2 determinations are used in this study as a hiomarker of diclofenac effect since its mechanism of action involves inhibition of cyclooxygenase (COX-2 and COX-1) enzymes which in turn results in inhibition of PGE2 synthesis.” left out, “MTO, an enzyme found in abundance in granulocytes, is used as a biochemical marker of tissue inflammation. When tissues undergo inflammatory processes, granulocytes are recruited to the site of inflammation and infiltrate the affected tissue giving rise to increase MPO activity (Souza et al. (2003), supra).” left out, “nm).” for “nm). For stomach ACE2 measurements, tissues were homogenized in the presence of a general protease inhibitor (PMSF) and specific ACE inhibitors.”
as §3

A further data set has as its target T1, ACE2 (Rattus norvegicus, UniProt Q5EGZ1).
T1 construct: from tissue; host or cells: rat stomach (excluding forestomach) homogenate
The data set can be described thus: Acute diclofenac-induced gastric toxicity in rats: ACE2 activity in stomach tissue. In kind it is in vivo. As for the experimental part: as §1
as §2, with “PRE2 determinations are used in this study as a hiomarker of diclofenac effect since its mechanism of action involves inhibition of cyclooxygenase (COX-2 and COX-1) enzymes which in turn results in inhibition of PGE2 synthesis.” left out, “MTO, an enzyme found in abundance in granulocytes, is used as a biochemical marker of tissue inflammation. When tissues undergo inflammatory processes, granulocytes are recruited to the site of inflammation and infiltrate the affected tissue giving rise to increase MPO activity (Souza et al. (2003), supra).” left out, “nm).” for “nm). For stomach ACE2 measurements, tissues were homogenized in the presence of a general protease inhibitor (PMSF) and specific ACE inhibitors.”
as §3

The next data set relates to gastric PGE2 synthesis. The data set can be described thus: Acute indomethacin-induced gastric toxicity in rats: gastric PGE2 synthesis. Type of data set: in vivo, rat. To be noted: indomethacin 20 mg/kg p.o. As for the experimental part: A study was conducted to determine whether GL1001 would inhibit acute NSAID (indomethacin)-induced gastric toxicity in a rat model (Wallace et al. (1998) Gastroenterol. 115:101-109). Several modes of treatment with GL1001 or vehicle were employed, which included administration via drinking water, oral administration and subcutaneous administration as shown in Table 4. Irrespective of the route of drug or vehicle administration, male Wistar rats were deprived of food for 16 h prior to oral administration of 20 mg/kg indomethacin (Sigma) or vehicle (5% w/v sodium bicarbonate; 1 ml/kg). Three hours later the rats were sacrificed and the severity of gastric damage was blindly scored. This involved measurement of the lengths (in mm) of all hemorrhagic erosions and summing these to give a “gastric damage score” for each stomach. Samples of the stomach were taken for measurement of prostaglandin E2 (PGE2) synthesis as described by Wallace et al. (1998), supra, and myeloperoxidase activity as described by Souza et al. (2003) Am. J. Physiol. 285:[…]-61. Myeloperoxidase is an enzyme found in all cells of mycloid origin, but particularly enriched within neutrophils. It is therefore used as a biochemical marker of granulocyte infiltration into tissue. Each group consisted of 6 rats. As a negative control, one group received vehicle pretreatments (in the drinking water and by oral gavage) and then received vehicle instead of indomethacin. […] [table] In the experiments where GL1001 (or vehicle) was added to drinking water, the rats were provided with the modified drinking water for 2 days prior to administration of indomethacin (or vehicle). This included the period when the rats were deprived of food. GL1001 was prepared in 0.1M citrate buffer before being added to the drinking water. Based on average water consumption by rats, this was aimed at providing a daily dose of GL1100 of 1200 mg/kg (water consumption was monitored for several days prior to initiation of the study). Oral or subcutaneous administration of GL1001 (or vehicle) was performed 30 minutes prior to administration of indomethacin. Data are expressed as mean±SEM. When two groups of data were compared, a Student's t-test was used. When more than two groups of data were compared, a one-way analysis of variance followed by the Newman-Keuls test was used. An associated probability of less than 5% was considered statistically significant.

A further data set relates to myeloperoxidase. The data set can be described thus: Acute indomethacin-induced gastric toxicity in rats: gastric myeloperoxidase activity. To be noted: Group J: PGE2 100 μg/kg p.o., indomethacin 20 mg/kg p.o.; vehicle Group I 29.5 ± 2.8. Type of data set: in vivo, rat. How it is done:
A study was conducted to determine whether GL1001 would inhibit acute NSAID (indomethacin)-induced gastric toxicity in a rat model (Wallace et al. (1998) Gastroenterol. 115:101-109). Several modes of treatment with GL1001 or vehicle were employed, which included administration via drinking water, oral administration and subcutaneous administration as shown in Table 4. Irrespective of the route of drug or vehicle administration, male Wistar rats were deprived of food for 16 h prior to oral administration of 20 mg/kg indomethacin (Sigma) or vehicle (5% w/v sodium bicarbonate; 1 ml/kg). Three hours later the rats were sacrificed and the severity of gastric damage was blindly scored. This involved measurement of the lengths (in mm) of all hemorrhagic erosions and summing these to give a “gastric damage score” for each stomach. Samples of the stomach were taken for measurement of prostaglandin E2 (PGE2) synthesis as described by Wallace et al. (1998), supra, and myeloperoxidase activity as described by Souza et al. (2003) Am. J. Physiol. 285:[…]-61. Myeloperoxidase is an enzyme found in all cells of mycloid origin, but particularly enriched within neutrophils. […] Based on average water consumption by rats, this was aimed at providing a daily dose of GL1100 of 1200 mg/kg (water consumption was monitored for several days prior to initiation of the study). […] Data are expressed as mean±SEM. […]

For a further data set, the system named is duodenal ulcer. The note with it: administered to treat heart failure; Gidaiatov et al. (2000); cited from earlier work.
Data set [2] has as its system gastric mucosal erosions, dyspeptic symptoms. The note with it: cited from earlier work.

SMILES strings stand for the structures.

T1 sequence (Q5EGZ1 18-805): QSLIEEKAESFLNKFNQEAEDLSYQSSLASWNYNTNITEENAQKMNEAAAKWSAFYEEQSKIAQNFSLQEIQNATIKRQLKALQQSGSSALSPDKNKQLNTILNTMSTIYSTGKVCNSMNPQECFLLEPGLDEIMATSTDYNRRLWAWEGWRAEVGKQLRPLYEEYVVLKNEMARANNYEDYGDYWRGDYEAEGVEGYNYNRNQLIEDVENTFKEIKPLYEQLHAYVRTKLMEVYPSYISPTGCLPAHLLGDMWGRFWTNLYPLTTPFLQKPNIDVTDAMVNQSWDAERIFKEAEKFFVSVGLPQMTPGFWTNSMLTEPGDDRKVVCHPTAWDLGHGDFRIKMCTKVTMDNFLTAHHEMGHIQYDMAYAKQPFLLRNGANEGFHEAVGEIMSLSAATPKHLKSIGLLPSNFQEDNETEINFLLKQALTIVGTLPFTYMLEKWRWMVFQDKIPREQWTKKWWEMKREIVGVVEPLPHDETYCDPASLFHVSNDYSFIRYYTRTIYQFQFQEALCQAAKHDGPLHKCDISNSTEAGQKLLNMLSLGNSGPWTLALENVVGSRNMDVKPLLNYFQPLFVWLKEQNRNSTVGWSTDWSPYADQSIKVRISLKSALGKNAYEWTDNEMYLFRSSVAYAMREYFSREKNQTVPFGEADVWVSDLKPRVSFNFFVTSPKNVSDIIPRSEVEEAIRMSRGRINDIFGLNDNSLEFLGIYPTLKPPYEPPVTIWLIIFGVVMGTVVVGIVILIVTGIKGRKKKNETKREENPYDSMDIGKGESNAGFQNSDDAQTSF

In the case of `O=C(O)Cc1ccccc1Nc1c(Cl)cccc1Cl` [diclofenac], the “mean gastric damage score” value in data set [1] (diclofenac 50 mg/kg oral after vehicle pretreatment, 3 h (Group B)) stood at 17.8. In the data set with gastric PGE2 (all treatment groups that received diclofenac 50 mg/kg oral, vehicle Group A 43.22 pg/mg), the “PGE2 levels in stomach tissue” value is “no detectable”. Further, the “Activity of ACE2 in stomach tissue” value on ACE2 (diclofenac-treated Group B vs Group A, p=0.052) is reported as “trend towards up-regulation”.

Regarding `CCCCC[C@H](O)/C=C/[C@H]1[C@H](O)CC(=O)[C@@H]1C/C=C\CCCC(=O)O` [PGE2, prostaglandin E2], the “Gastric PGE2 synthesis” value in the data set on gastric PGE2 synthesis (Group J: PGE2 100 μg/kg p.o., vehicle Group I 6.08 ± 1.00) worked out at 6.10 ± 1.00 ng/mg. Also, the “Gastric MPO activity” value with myeloperoxidase came out at 22.8 ± 2.2 U/mg. The Gastric damage score in data set [1] is on record as 0; in data set [1] (listed as PCGE2) it was “total absence of gastric lesions”. In addition, the “Gastric PGE2 concentration” value with gastric PGE2 (Group D: PGE2 100 μg/kg oral before diclofenac 50 mg/kg) turned out to be 0 pg/mg. Moreover, at ACE2 (Group D: PGE2 100 μg/kg oral before diclofenac 50 mg/kg, Group B 880 ± 39), the “Gastric ACE2 activity” value is 688 ± 30 pmol/mg.

As for `CCOC(=O)[C@H](CCc1ccccc1)N[C@@H](C)C(=O)N1CCC[C@H]1C(=O)O` [enalapril], the “healing of duodenal ulcer, patients treated” value in the data set on duodenal ulcer is 87%. In addition, in data set [2] (hypertensive patients, decreased from 78% upon treatment), the “percentage of patients with dyspeptic symptoms” value is reported as 40%. For the same compound, the “number of patients having gastric mucosal erosions” value in data set [2] (of 30 hypertensive patients, decreased from 11 upon treatment) is 4.

`COc1ccc2c(c1)c(CC(=O)O)c(C)n2C(=O)c1ccc(Cl)cc1` [indomethacin, reference compound]: the “reduction of gastric PGE2 synthesis” value in the data set on gastric PGE2 synthesis (irrespective of pretreatment, vehicle only Group E 82 ng/mg) is listed as more than 92%.

The record behind these values is patent US20100035848A1, “THERAPY FOR DISORDERS OF THE PROXIMAL DIGESTIVE TRACT” (priority 2008, published 2010).
